One data set deals with human 5-HT2B receptor (Homo sapiens (Human), UniProt P41595). Nature of the data set: 5-HT2B agonist activity assay (IP1 production, HTRF). In kind it is cell-based. The method, then: Evaluation of the agonist activity of compounds (I), (Ia) and (Ib) at the human 5-HT2B receptor was performed by Eurofins/Cerep (France) measuring the compound effects on inositol monophosphate (IP1) production using the HTRF detection method. Briefly, the human 5-HT2B receptor was expressed in transfected CHO cells. The cells were suspended in a buffer containing 10 mM Hepes/NaOH (pH 7.4), 4.2 mM KCl, 146 mM NaCl, 1 mM CaCl2, 0.5 mM MgCl2, 5.5 mM glucose and 50 mM LiCl, then distributed in microplates at a density of 4100 cells/well and incubated for 30 min at 37° C. in the presence of buffer (basal control), test compound or reference agonist. For stimulated control measurement, separate assay wells contained 1 μM 5-HT. Following incubation, the cells were lysed and the fluorescence acceptor (fluorophen D2-labeled IP1) and fluorescence donor (anti-IP1 antibody labeled with europium cryptate) were added. After 60 min at room temperature, the fluorescence transfer was measured at lambda(Ex) 337 nm and lambda(Em) 620 and 665 nm using a microplate reader (Rubystar, BMG). The IP1 concentration was determined by dividing the signal measured at 665 nm by that measured at 620 nm (ratio). The results were expressed as a percent of the control response to 1 μM 5-HT. The standard reference agonist was 5-HT, which was tested in each experiment at several concentrations to generate a concentration-response curve from which its EC50 value is calculated as described above for dopamine functional assays.
A general note: TR-FRET usually uses a lanthanide donor and a delayed reading to cut background.

The next data set deals with human D1 receptor (Homo sapiens (Human), UniProt P21728). In words: Dopamine D1 receptor agonism, HTRF cAMP assay. In kind it is cell-based. The following applies: HEK-293 cells expressing human D1 receptor, cAMP. The method, then: Dopamine D1 receptor agonism was measured using a HTRF cAMP from CisBio using the protocol developed by HD Biosciences (China). Briefly, the assay is a homogeneous time resolved-fluorescence resonance energy transfer (HTRF) assay that measures production of cAMP by cells in a competitive immunoassay between native cAMP produced by cells and cAMP-labeled with XL-665. A cryptate-labeled anti-cAMP antibody visualizes the tracer. The assay was performed in accordance with instructions from manufacturer.
Test compounds were added to wells of microplates (384 format). HEK-293 cells expressing the human D1 receptor were plated at 1000 cells/well and incubated 30 min at room temperature. cAMP-d2 tracer was added to wells and followed by addition of Anti-cAMP antibody-cryptate preparation and incubated for 1 h at room temperature in dark. HTRF cAMP was measured by excitation of the donor with 337 nm laser (the “TRF light unit”) and subsequent (delay time 100 microseconds) measurement of cryptate and d2 emission at 615 nm and 665 nm over a time window of 200 microseconds with a 2000 microseconds time window between repeats/100 flashes). HRTF measurements were performed on an Envision microplate reader (PerkinElmer). The HTRF signal was calculated as the emission-ratio at 665 nm over 615 nm. The HTRF ratio readout for test compounds was normalized to 0% and 100% stimulation using control wells with DMSO-solvent or 30 uM dopamine. Test compound potency (EC50) was estimated by nonlinear regression using the sigmoidal dose-response (variable slope) using Xlfit 4 (IDBS, Guildford, Surrey, UK, model 205). y=(A+((B−A)/(1+((C/x)^D)))) where y is the normalized HTRF ratio measurement for a given concentration of test compound, x is the concentration of test compound, A is the estimated efficacy at infinite compound dilution, and B is the maximal efficacy. C is the EC50 value and D is the Hill slope coefficient. EC50 estimates were obtained from an independent experiment and the logarithmic average was calculated. Dopamine D2 Receptor Agonism

The target in the next data set is human D2 receptor (Homo sapiens (Human), UniProt P14416). In words: Dopamine D2 receptor agonism, calcium mobilization assay. In kind it is cell-based. The method, then:
Dopamine D2 receptor agonism was measured using a calcium mobilization assay protocol developed by HD Biosciences (China). Briefly, HEK293/G15 cells expressing human D2 receptor were plated at a density of 15000 cells/well in clear-bottomed, Matrigel-coated 384-well plates and grown for 24 hrs at 37° C. in the presence of 5% CO2. The cells were incubated with calcium-sensitive fluorescent dye, Fluo8, for 60-90 minutes at 37° C. in the dark. Test compounds were prepared at 3-fold concentrated solution in 1×HBSS buffer with Ca^2+ and Mg^2+. Calcium Flux signal was immediately recorded after compounds were added from compound plate to cell plate at FLIPR (Molecular Devices). The fluorescence data were normalized to yield responses for no stimulation (buffer) and full stimulation (1 μM of dopamine) of 0% and 100% stimulation, respectively. Test compound potency (EC50) was estimated by nonlinear regression using the sigmoidal dose-response (variable slope) using Xlfit 4 (IDBS, Guildford, Surrey, UK, model 205). y=(A+((B−A)/(1+((C/x)^D)))) where y is the normalized ratio measurement for a given concentration of test compound, x is the concentration of test compound, A is the estimated efficacy at infinite compound dilution, and B is the maximal efficacy. C is the EC50 value and D is the Hill slope coefficient. EC50 estimates were obtained from independent experiment and the logarithmic average was calculated.
For orientation: A change in cytosolic calcium serves as a functional read-out for many receptors and channels.

A short description of data set [1]: PK experiments in rats: plasma compound (I) after oral dosing of prodrugs. In kind it is in vivo, Han Wistar rats. As to conditions: Wistar rats, FIG. 2, doses equal to 287 μg/kg of compound (I). The method, then: Plasma was placed on water-ice following collection. Final storage at approximately −70° C.
Mobile phase B: Acetonitrile. […] Flow rate 0.5 mL/min.
The rats had unrestricted access to the diet.
Mobile phase B: Acetonitrile+0.2% formic acid. […] Flow rate 0.3 mL/min.
Han Wistar rats were supplied by Envigo, UK. […] The rats received a standard laboratory diet Teklad 2014C. The rats had unrestricted access to the diet.

Data set [2] in a line: Conversion to compound (I) in fresh human blood. In kind it is in vitro ADME. As to conditions: fresh blood 37° C., 1 μg/mL, 0-60 minutes, FIG. 8b. The method, then: (§1) Conversion of (Id-ia), (Id-ib), (Id-iia) and (Id-iib) in human blood (average of 3 donors) and rat blood (average of 45 donors) to (I) was shown in fresh blood at 37° C. spiked with 1 μg/mL of (Id-ia), (Id-ib), (Id-iia) and (Id-iib) separately, (I) was measured at 0, 5, 15, 30 and 60 minutes in isolated plasma. Analysis method and Instrumentation as described in Examples 4 and 5 below in the section “Instrumentation used for analysis of compound (I) from dosing of compounds (Ic), (Id-ia), (Id-ib), (Id-iia), (Id-iib), (Id-iab) and (Id-iiab).”

A further data set deals with hepatocytes from human. In words: Conversion to compound (I) in human hepatocytes. In kind it is in vitro ADME. As to conditions: 1 μg/mL, 37° C., 0.25-60 minutes, FIG. 7b. The method, then:
(§2) The cell concentration at incubation was 1×10^6 viable cells/mL. The incubations were performed in glass tubes at 37° C. with a total incubation volume of 3.5 mL and with duplicate incubations for each test item. The 3.5 mL of hepatocyte suspension was equilibrated for 10 minutes in a water bath set to 37° C. where after the incubations were initiated by adding 3.5 μL of a stock solution of the test item in DMSO (Dimethyl sulfoxide) and gently inverting the tubes. The final solvent concentration in the incubations was 0.1% DMSO. Samples of 600 μL were withdrawn from the incubations at the pre-determined time points of 0.25, 5, 15, 30 and 60 minutes after ensuring homogeneity of hepatocyte suspensions. The withdrawn volume was added to 1 mL Nunc cryo tubes on wet ice containing 60 μL of ice cold ascorbic acid (100 mg/mL) and 30 μL of ice cold 100 mM saccharic acid 1.4-lactone in 0.5 M citric acid. The tubes were mixed and 35 μL of a solution of ice cold 20% formic acid was added. The tubes were mixed thoroughly and stored at −80° C. awaiting analysis. Analysis method and Instrumentation used for analysis of (I) from dosing (Id-ia), (Id-ib), (Id-iia) and (Id-iib), were the one described in Examples 4 and 5 below in the section “Instrumentation used for analysis of compound (I) from dosing of compounds (Ic), (Id-ia), (Id-ib), (Id-iia), (Id-iib), (Id-iab) and (Id-iiab).”
(§3) Analysis method and Instrumentation used for analysis of (I) from dosing (Id-iab) and (Id-iiab) consisted of mixing equal aliquots of the samples and precipitation solution (acetonitrile (MeCN) with 10% methanol (MeOH) and 1% formic acid), followed by centrifugation at 4° C. at 16000 g for 10 minutes. Supernatants were collected and analysed by LC-MS/MS. Mass spectrometer: Waters Acquity—Waters Xevo TQ-MS. Analytical column: Acquity UPLC HSS T3, 100×2.1 mm, 1.8 μm. Mobile phase A: 0.2% formic acid in water. Mobile phase B: 0.2% formic acid in acetonitrile. Gradient run from 95/5% to 60/40 in 5 min. Flow rate 0.3 mL/min. MRM monitoring of (I) in the study samples and in the analytical standards.

Data set [3] in a line: Conversion to compound (I) in fresh rat blood. In kind it is in vitro ADME. As to conditions: fresh blood 37° C., 1 μg/mL, 0-60 minutes, FIG. 8a. The method, then:
as §1

The next data set has as its system hepatocytes from rat. In words: Conversion to compound (I) in rat hepatocytes. In kind it is in vitro ADME. As to conditions: 1 μg/mL, 37° C., 0.25-60 minutes, FIG. 7a. Here is the method:
as §2, §3

For the next data set, the system named is male CD rats. In words: Rat locomotor activity (hyperactivity) assay, open field. As to conditions: for time until locomotor effect is gone: apomorphine: post administration, pramipexole: after appearance of effect, (Id-ia): recording ended at 415-minute time point. In kind it is in vivo. The method, then:
In total, 206 male CD rats (Charles River, Germany) weighing 200-250 grams (165-190 grams upon arrival) were used in the study. Animals were housed at a standard temperature (22±1° C.) and in a light-controlled environment (lights on from 7 am to […]) with ad libitum access to food and water. The experiment described below was performed in accordance with the standard operating procedures of Charles River Discovery Research Services Finland Ltd. and in accordance with the national Animal Experiment Board of Finland (Eläinkoelautakunta, ELLA) authority on animal testing.
The test device is a square Plexiglass-arena (measuring 40×40×40 cm), in which the movement paths of the rats are recorded by an activity monitor (Med. Associates Inc.). Before the test period is initiated, rats are habituated to their test cage for 60 minutes. Upon completion of habituation, animals were treated with either compound or vehicle and placed back into the open field apparatus. The main test parameter measured is ambulatory distance (recorded in 5 minute segments). Overall time of measurement after receiving initial treatment was 360 minutes. Total follow up period in the study was 420 min, including 60 min of habituation.

human 5-HT2B receptor, sequence (P41595 whole entry): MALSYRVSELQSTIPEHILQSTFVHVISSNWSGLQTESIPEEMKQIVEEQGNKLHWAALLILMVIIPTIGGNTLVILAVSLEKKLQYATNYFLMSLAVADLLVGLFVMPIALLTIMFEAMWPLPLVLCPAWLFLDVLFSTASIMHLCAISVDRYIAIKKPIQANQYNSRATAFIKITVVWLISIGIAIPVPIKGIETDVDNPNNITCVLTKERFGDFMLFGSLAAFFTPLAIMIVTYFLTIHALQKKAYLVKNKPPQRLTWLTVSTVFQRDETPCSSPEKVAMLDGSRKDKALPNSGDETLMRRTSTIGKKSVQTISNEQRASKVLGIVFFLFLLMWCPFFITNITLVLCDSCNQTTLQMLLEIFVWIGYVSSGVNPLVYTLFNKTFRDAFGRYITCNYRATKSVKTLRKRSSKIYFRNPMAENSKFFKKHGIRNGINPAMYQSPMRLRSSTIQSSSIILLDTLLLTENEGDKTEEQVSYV
human D1 receptor, sequence (P21728 whole entry): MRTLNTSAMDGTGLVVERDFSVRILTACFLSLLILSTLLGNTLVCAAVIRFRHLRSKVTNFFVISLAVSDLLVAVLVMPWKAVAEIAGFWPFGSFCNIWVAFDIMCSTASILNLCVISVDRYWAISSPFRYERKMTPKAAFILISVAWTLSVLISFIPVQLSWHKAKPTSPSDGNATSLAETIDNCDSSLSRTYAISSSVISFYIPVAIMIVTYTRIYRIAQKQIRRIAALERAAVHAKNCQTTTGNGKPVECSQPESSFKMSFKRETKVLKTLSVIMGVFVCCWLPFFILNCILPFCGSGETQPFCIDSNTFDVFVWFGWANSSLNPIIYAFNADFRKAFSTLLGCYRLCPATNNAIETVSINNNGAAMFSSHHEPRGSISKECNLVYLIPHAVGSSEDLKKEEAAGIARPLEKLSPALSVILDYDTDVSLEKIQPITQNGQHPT
human D2 receptor, sequence (P14416 whole entry): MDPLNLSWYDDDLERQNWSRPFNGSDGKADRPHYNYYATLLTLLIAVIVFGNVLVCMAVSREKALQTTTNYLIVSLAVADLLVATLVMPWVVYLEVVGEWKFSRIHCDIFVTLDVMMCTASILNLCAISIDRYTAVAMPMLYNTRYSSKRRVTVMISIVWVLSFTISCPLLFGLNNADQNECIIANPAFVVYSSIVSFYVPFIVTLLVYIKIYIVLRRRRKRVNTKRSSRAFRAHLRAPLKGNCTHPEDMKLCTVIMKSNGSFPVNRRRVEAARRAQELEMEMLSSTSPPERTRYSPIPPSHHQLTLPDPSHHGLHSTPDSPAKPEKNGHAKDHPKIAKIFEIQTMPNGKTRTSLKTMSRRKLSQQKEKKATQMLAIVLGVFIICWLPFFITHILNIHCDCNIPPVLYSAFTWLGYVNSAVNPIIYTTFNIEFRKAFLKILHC

Usually EC50 stands for the midpoint of the concentration-response curve. With `CCCN1CCC[C@@H]2CC3=C(CCCC3=O)C[C@H]21` [(Ia), reference compound], the “5-HT2B agonist effect at concentration indicated” value at human 5-HT2B receptor (@30 uM, percent of control response to 1 μM 5-HT) is 58%. Also, the EC50 at human 5-HT2B receptor (CHO cells, IP1 production) is over 6000 nM; on human D1 receptor, over 1000 nM; at human D2 receptor (HEK293/G15 cells expressing human D2 receptor, calcium flux) it was over 1000 nM. Further, the “plasma profile of compound (I) after oral dosing (in words)” value (from here on “plasma profile of compound (I)”) in data set [1] is “early and high peak concentrations of compound (I)”.

As a reminder, the Emax is the maximal effect, on the per cent scale that the assay sets. Regarding `CCCN1CCC[C@@H]2Cc3c(ccc4c3OCO4)C[C@H]21` [(Ib), reference compound], at human 5-HT2B receptor (example 3), the “5-HT2B agonism (in words)” value was “agonist of the 5-HT2B receptor”. The Emax on human 5-HT2B receptor (read-out: 5-HT2B Emax) worked out at 79%; on human D2 receptor (normalized to 1 μM dopamine = 100%) it was 100%. The molecule also showed an EC50 on human D1 receptor of over 1000 nM. For the same molecule, the “plasma profile of compound (I)” value in data set [1] is “early and high peak concentrations of compound (I)”.

On to `CCCN1CCC[C@@H]2Cc3c(ccc(OC(=O)C(C)(C)C)c3OC(=O)C(C)(C)C)C[C@H]21` [(Ic), reference compound], for which the “5-HT2B effect at concentration indicated (no asterisk)” value on human 5-HT2B receptor (@10 μM) is on record as −5%@10. Also, the “plasma profile of compound (I)” value in data set [1] is recorded as “extremely low”.

In the case of `CCCN1CCC[C@@H]2Cc3c(ccc(O[C@@H]4O[C@H](C(=O)O)[C@@H](O)[C@H](O)[C@H]4O)c3O)C[C@H]21` [(Id-ib), (2S,3S,4S,5R,6S)-3,4,5-trihydroxy-6-(((4aR,10aR)-6-hydroxy-1-propyl-1,2,3,4,4a,5,10,10a-octahydrobenzo[g]quinolin-7-yl)oxy)tetrahydro-2H-pyran-2-carboxylic acid], the “conversion to compound (I) in human blood” value in data set [2] is “time dependent conversion to compound (I)”. For the same molecule, the “conversion to compound (I) in human hepatocytes” value with hepatocytes from human is “time dependent conversion to compound (I)”. Further, the “conversion to compound (I) in rat blood” value in data set [3] is on record as “time dependent conversion to compound (I)”. Further, in the data set on hepatocytes from rat, the “conversion to compound (I) in rat hepatocytes” value was “time dependent conversion to compound (I)”. Besides, the “plasma profile of compound (I)” value in data set [1] is reported as “slower absorption rate avoiding rapid peak concentrations accompanied by a sustained exposure of compound (I) in plasma”.

Consider `CCCN[C@H]1CCc2nc(N)sc2C1` [Pramipexole, pramipexole, reference compound], for which the “total distance travelled vs vehicle” value with male CD rats (FIG. 4, (Id-ia) p.o., apomorphine 3 mg/kg s.c., pramipexole 0.3 mg/kg s.c.) is listed as “significantly increased activity”. The “time until locomotor effect is gone” value in the data set with male CD rats is 2.5 h.

On to `CN1CCc2cccc3c2[C@H]1Cc1ccc(O)c(O)c1-3` [apomorphine, reference compound], for which the “time until locomotor effect is gone” value in the data set on male CD rats was 1.5 h.

Source of the values: patent publication US10729710B2, “Catecholamine prodrugs for use in the treatment of Parkinson's disease” (H. Lundbeck A/S, priority 2017, dated 2020).
